This is an account of results in patent publication US12612441B2, “Polypeptide and therapeutic uses thereof” (Vitalixir (Beijing) Co., Ltd, priority 2019, dated 2026).

For this test, the system named is db/db mice. Briefly: Blood glucose lowering in db/db mice (Example 12). Type of test: in vivo. To be noted: db/db male mice, 35 nmol/kg subcutaneous single dose, 0-10 hours, AUC, vs PBS control; FIG. 9. As to the method:
The feeding conditions of db/db mice were the same as described in Example 7. The db/db male mice (GemPharmatech, 7 weeks old) had one-week to acclimate to the environmental conditions of the test facility. Three days before the test (−3 day˜−1 day) baseline blood glucose and body weight were recorded. The mice were randomly grouped based on three-day blood glucose and body weight, with 6 mice in each group. Mice were injected subcutaneously with PBS (5 ml/kg, control group) or peptide compounds 42, 115, 178 (35 nmol/kg) at 10:00 in the morning. Blood was collected at 0 hour before drug administration, and 1.5, 4, 7, and 10 hours after administration, and blood glucose was measured using a OneTouch glucose meter (Johnson & Johnson) and test strips. By using time as the abscissa and the blood glucose value at different time points as the ordinate blood glucose curves were drawn, and the areas under the curve (AUC) were calculated to compare the hypoglycemic effects and duration of action of the peptide compounds.
As to “Y(aib)EGTFTSDLSI(aib)LEKEAVRLFIEWLLAG-NH2 (YXEGTFTSDLSIXLEKEAVRLFIEWLLAG; Aib; C-terminal amide; MOD_RES (2)..(2) X=aminoisobutyric aicd; MOD_RES (13)..(13) X=aminoisobutyric aicd; MOD_RES (29)..(29) AMIDATION, C-termianl amidation) [Compound 42]”, the blood glucose result was “significantly reduced blood glucose”.

Regarding “Y(aib)EGTFTSDLSI(aib)LEKEAVRLFIEWLLAGGPS-NH2 (YXEGTFTSDLSIXLEKEAVRLFIEWLLAGGPS; Aib; C-terminal amide; MOD_RES (2)..(2) X=aminoisobutyric aicd; MOD_RES (13)..(13) X=aminoisobutyric aicd; MOD_RES (32)..(32) AMIDATION, C-termianl amidation) [Compound 178]”, the blood glucose result was “significantly reduced blood glucose”. As for “Y(aib)EGTFTSDLSI(aib)LEKEAVRLFIEWLLAGGPSSGA-NH2 (YXEGTFTSDLSIXLEKEAVRLFIEWLLAGGPSSGA; Aib; C-terminal amide; MOD_RES (2)..(2) X=aminoisobutyric aicd; MOD_RES (13)..(13) X=aminoisobutyric aicd; MOD_RES (35)..(35) AMIDATION, C-termianl amidation) [Compound 115]”, the entry is “significantly reduced blood glucose”.
